Key:
IMP-1 = IMP-1 (Serratia marcescens, UniProt P52699); experiment: MBL inhibition, FC-5 fluorescence assay, IMP-1; assay type: biochemical; settings: FC-5 cephalosporin substrate, fluorescence; ranges of obtained pIC50; read-out: pIC50 IMP-1 (converted)
Outline: (§1)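 Dose-response fits (log inhibitor vs normalized response, variable slope) used initial reaction rates, each concentration in 4 replicates within the plate. Rates came from fluorophore release at ex 380/em 460 nm as the MBL hydrolyzed FC-5.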

VIM-1 = VIM-1 (Pseudomonas aeruginosa, UniProt A0A0F7KYQ8); experiment: MBL inhibition, FC-5 fluorescence assay, VIM-1; assay type: biochemical; settings: FC-5 cephalosporin substrate, ranges of obtained pIC50, read-out: pIC50 VIM-1 (converted)
Outline: as §1

[1] = Plasma protein binding, equilibrium dialysis, human plasma; assay type: in vitro ADME; settings: pH 7.4, equilibrium dialysis (RED) 4 hours at 37° C., read-out: Plasma protein binding, fu, Human
Description: The fraction of unbound compound (fu) in plasma from human or other animal species was determined by equilibrium dialysis at 37° C. for 4 hours using the Rapid Equilibrium Dialysis (RED) device (ThermoFisher Scientific). The test compound at a concentration of 10 μM was added to plasma and dialyzed against isotonic phosphate buffer (67 mM, pH 7.4) over 4 hours at 37° C. After dialysis, compound concentrations in buffer and plasma were quantified by LC-MS/MS. In parallel the stability of the compound in plasma was determined by incubating drug-spiked plasma (10 μM) at 37° C. for 4 hours, meanwhile the control plasma sample was kept in the freezer. The concentration of the compound in both samples was quantified by LC-MS/MS (Waters Corp, Milford, MA, USA).

[2] = system: Acinetobacter baumannii NDM-1; experiment: Antibiotic susceptibility testing (MIC), AB NDM-1; assay type: cell-based; settings: agar or broth dilution (CLSI/EUCAST)
Description: (§2) Antibiotic susceptibility testing was performed using the agar or broth dilution method, in line with the Clinical and Laboratory Standards Institute (CLSI) and European Committee on Antimicrobial Susceptibility Testing (EUCAST) requirements.

Escherichia coli NDM-1 = experiment: Antibiotic susceptibility testing (MIC), EC NDM-1; assay type: cell-based; settings: agar or broth dilution (CLSI/EUCAST)
Description: as §2

Escherichia coli NDM-7 = experiment: Antibiotic susceptibility testing (MIC), EC NDM-7; assay type: cell-based; settings: agar or broth dilution (CLSI/EUCAST)
Description: as §2

NDM-1 = NDM-1 (Klebsiella pneumoniae, UniProt C7C422); experiment: MBL inhibition, FC-5 fluorescence assay, NDM-1; assay type: biochemical; settings: FC-5 cephalosporin substrate, fluorescence; ranges of obtained pIC50; read-out: pIC50 NDM-1 (converted)
Outline: as §1

VIM-2 = VIM-2 (Escherichia coli, UniProt Q5U7L7); experiment: MBL inhibition, FC-5 fluorescence assay, VIM-2; assay type: biochemical; settings: FC-5 cephalosporin substrate, ranges of obtained pIC50, read-out: pIC50 VIM-2 (converted)
Outline: as §1

Chain of NDM-1 (C7C422 29-270, looked up, species assumed): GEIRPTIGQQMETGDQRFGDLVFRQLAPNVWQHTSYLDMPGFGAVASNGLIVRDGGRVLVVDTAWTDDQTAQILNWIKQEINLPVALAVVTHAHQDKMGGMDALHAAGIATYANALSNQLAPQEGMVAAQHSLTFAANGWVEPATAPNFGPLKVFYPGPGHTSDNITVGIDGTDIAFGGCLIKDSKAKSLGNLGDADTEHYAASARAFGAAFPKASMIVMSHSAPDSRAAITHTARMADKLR
Chain of IMP-1 (P52699 19-246, looked up, species assumed): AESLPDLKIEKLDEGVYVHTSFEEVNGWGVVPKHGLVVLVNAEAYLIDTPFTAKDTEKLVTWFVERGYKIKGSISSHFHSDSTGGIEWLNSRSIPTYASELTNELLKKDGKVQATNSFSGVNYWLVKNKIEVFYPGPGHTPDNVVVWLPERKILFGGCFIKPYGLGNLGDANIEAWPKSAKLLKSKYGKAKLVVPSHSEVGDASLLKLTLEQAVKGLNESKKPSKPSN

| Structure (SMILES) | IC50 (IMP-1) [nM] | IC50 (VIM-1) [nM] | fraction unbound at 4 h, 10 μM [1] | MIC values AB NDM-1 [2] | MIC values EC NDM-1 (Escherichia coli NDM-1) | MIC values EC NDM-7 (Escherichia coli NDM-7) | IC50 (NDM-1) [nM] | IC50 (VIM-2) [nM] |
| --- | --- | --- | --- | --- | --- | --- | --- | --- |
| C[C@@H](c1cccc2c(-c3cnn(C)c(=O)c3)c(C(=O)O)[nH]c12)N1C[C@]2(C[C@@H](CN)C2)OC1=O [IC-28, 7-((S)-1-((2S,4r)-2-(aminomethyl)-6-oxo-5-oxa-7-azaspiro[3.4]octan-7-yl)ethyl)-3-(1-methyl-6-oxo-1,6-dihydropyridazin-4-yl)-1H-indole-2-carboxylic acid] | > 10 | 1 to 10 | 0.05 to 0.25 | C (C = MIC values > 8) | B (B MIC values 2 ÷ 8) | A (A = MIC values ≤ 1) | 1 to 10 | 0.1 to 1 |
| C[C@@H](c1cccc2c(-c3cnc(O)c(O)c3)c(C(=O)O)[nH]c12)N1C[C@]2(C[C@@H](CN)C2)OC1=O [IC-29, 7-((S)-1-((2S,4r)-2-(aminomethyl)-6-oxo-5-oxa-7-azaspiro[3.4]octan-7-yl)ethyl)-3-(5,6-dihydroxypyridin-3-yl)-1H-indole-2-carboxylic acid] | > 10 | > 10 | 0.005 to 0.05 | C (C = MIC values > 8) | B (B MIC values 2 ÷ 8) | A (A = MIC values ≤ 1) | > 10 | 1 to 10 |
| C[C@@H](c1cccc2c(-c3ccn(C)c(=O)c3)c(C(=O)O)[nH]c12)N1C[C@]2(C[C@@H](CN)C2)OC1=O [IC-32, 3-(1-methyl-2-oxo-1,2-dihydropyridin-4-yl)-7-[(1S)-1-[(2r,4r)-2-(aminomethyl)-6-oxo-5-oxa-7-azaspiro[3.4]octan-7-yl]ethyl]-1H-indole-2-carboxylic acid] | > 10 | 1 to 10 | > 0.25 | B (B MIC values 2 ÷ 8) | B (B MIC values 2 ÷ 8) | A (A = MIC values ≤ 1) | 0.1 to 1 | 0.1 to 1 |
| C[C@@H](c1cccc2c(-c3cn[nH]c(=O)c3)c(C(=O)O)[nH]c12)N1C[C@]2(C[C@@H](CN)C2)OC1=O [IC-33, 3-(6-oxo-1,6-dihydropyridazin-4-yl)-7-[(1S)-1-[(2r,4r)-2-(aminomethyl)-6-oxo-5-oxa-7-azaspiro[3.4]octan-7-yl]ethyl]-1H-indole-2-carboxylic acid] | > 10 | 1 to 10 | 0.05 to 0.25 | B (B MIC values 2 ÷ 8) | A (A = MIC values ≤ 1) | A (A = MIC values ≤ 1) | 1 to 10 | 0.1 to 1 |
| C[C@@H](c1cccc2c(-c3ccnc(N)c3)c(C(=O)O)[nH]c12)N1C[C@]2(C[C@@H](CN)C2)OC1=O [IC-34, 3-(2-Aminopyridin-4-yl)-7-[(1S)-1-[(2r,4r)-2-(aminomethyl)-6-oxo-5-oxa-7-azaspiro[3.4]octan-7-yl]ethyl]-1H-indole-2-carboxylic acid] | > 10 | 1 to 10 | > 0.25 | C (C = MIC values > 8) | B (B MIC values 2 ÷ 8) | A (A = MIC values ≤ 1) | > 10 | 1 to 10 |
| CNc1cc(-c2c(C(=O)O)[nH]c3c([C@H](C)N4C[C@]5(C[C@@H](CN)C5)OC4=O)cccc23)ccn1 [IC-35, 3-[2-(methylamino)pyridin-4-yl]-7-[(1S)-1-[(2r,4r)-2-(aminomethyl)-6-oxo-5-oxa-7-azaspiro[3.4]octan-7-yl]ethyl]-1H-indole-2-carboxylic acid] | > 10 | 1 to 10 | > 0.25 | C (C = MIC values > 8) | A (A = MIC values ≤ 1) | A (A = MIC values ≤ 1) | > 10 | 0.1 to 1 |
